The values below come from ChEMBL document CHEMBL1154272, “Function-oriented biosynthesis of beta-lactone proteasome inhibitors in Salinispora tropica” (J Med Chem, 2009).

Assay [1] can be described thus: Inhibition of chymotrypsin like activity of yeast 20S proteasome beta 5 subunit after 30 mins by fluorescence assay. More on the design: species or system Saccharomyces cerevisiae.
Assay [2] relates to HCT-116. The experiment in a line: Cytotoxicity against human HCT116 cells after 72 hrs by MTS/PMS assay. The conditions noted are these: HCT-116, 72 h. The format is functional, cell-based.

Structures are written as SMILES.

A word on the IC50: it is the concentration that gives 50% inhibition. Higher therefore signals a need for much substance. For `CCCC[C@H](O)[C@@]12NC(=O)[C@H](CCCl)[C@]1(C)OC2=O` [SALINOSPORAMIDE X6], the IC50 stood at 0.132 µM in assay [1] and 1.11 µM in assay [2].
On the same counts, the results for `C[C@@]12OC(=O)[C@]1([C@@H](O)C1CCC1)NC(=O)[C@@H]2CCCl` [SALINOSPORAMIDE X3] are 0.0934 µM and 0.188 µM.
For the compound `C[C@@]12OC(=O)[C@]1([C@@H](O)C1CCCC1)NC(=O)[C@@H]2CCCl`, the IC50 in assay [1] was 0.0093 µM; in assay [2], 0.054 µM.
On to `C[C@@]12OC(=O)[C@]1([C@@H](O)c1ccccc1)NC(=O)[C@@H]2CCCl` [SALINOSPORAMIDE X4], for which the IC50 in assay [1] was 1.03 µM; in assay [2], 6.88 µM.
In the case of `CC(C)[C@H](O)[C@@]12NC(=O)[C@H](CCCl)[C@]1(C)OC2=O` [ANTIPROTEALIDE], the IC50 is 0.101 µM in assay [1] and 0.777 µM in assay [2].
Regarding `CCC[C@H](O)[C@@]12NC(=O)[C@H](CCCl)[C@]1(C)OC2=O` [SALINOSPORAMIDE X5], the IC50 was 0.245 µM in assay [1] and 1.09 µM in assay [2].
In the case of `C[C@@]12OC(=O)[C@]1([C@@H](O)C1CCCCC1)NC(=O)[C@@H]2CCCl`, the IC50 in assay [1] turned out to be 0.0275 µM; in assay [2], 0.176 µM.
The corresponding values for `C[C@@]12OC(=O)[C@]1([C@@H](O)[C@@H]1C=CCC1)NC(=O)[C@@H]2CCCl` [SALINOSPORAMIDE X7] are 0.0022 µM and 0.0059 µM.
`C[C@@]12OC(=O)[C@]1([C@@H](O)[C@@H]1C=CCCC1)NC(=O)[C@@H]2CCCl` [MARIZOMIB]: the IC50 in assay [1] came to 0.0019 µM; in assay [2], 0.016 µM.
